Measured values: patent US6846842B2, “Pyruvate ester composition and method of use for resuscitation after events of ischemia and reperfusion” (Beth Israel Deconess Medical Center, Inc., priority 1999, dated 2005)

Experiments:
[1] = Stability and enolization of pyruvate esters in Ringer's solution (NMR, ultraviolet absorption); type: physicochemical; conditions: for absorbance: 28 mM solution, 300-340 nm; for average absorption, corrected for blanks: 1 mMolar solution, 230-260 nm
Method: Specifically, the preferred embodiment of this “pyruvated” Ringer's solution for use in NMR, stability, and subsequent biological studies is shown in Table 2.
Following the procedural recommendations for analysis of Margolis et al. (1986) with respect to scanning times and frequencies on a 400 MHz spectrometer operating in pulse. […] The ultraviolet absorptions of these solutions were also measured periodically over the 230-260 nm range and 300-340 nm span, where changes in enol formation become evident, and provided confirmatory evidence about the distinctly different salvation properties of pyruvate ester analogs in comparison to pyruvate salts applied in the various methods of prior art.
The experimental sequence in which to establish the greater utility of the pyruvate derivatives in this invention follows along the same lines as the comparative spectral experiments just described.
When 28 mM solutions were examined in a similar manner at 300-340 nm, the absorbance of pyruvate remained unchanged before and after calcium addition at a value of 0.03, while the ethyl pyruvate solutions become noticeably straw colored to the naked eye, rising in absorbance from 0.07 to 0.85. The yellow coloration and increases in spectrophotometric absorption in the ultraviolet region confirms the formation of a 1,3-conjugated ketone system, as would result from the enolization of ethylpyruvate under conditions which appear not to enolize pyruvic acid.

[2] = tested on: ischemia/reperfusion mucosal injury, small intestine; test: Rat model of superior mesenteric artery occlusion (ischemia/reperfusion mucosal injury and barrier dysfunction); type: in vivo, male Sprague-Dawley rats; conditions: for mucosal thickness (MT) / villous height (VH): 28 mM infusate, mean ± SEM, n=6; for mucosal permeability (FITC-dextran, everted gut sac): during reperfusion
Method: The model system and calculation parameters are illustrated in FIG. 3.
Heart rate and mean arterial blood pressure were measured via a right carotid arterial catheter. The left internal jugular vein was cannulated for intravenous infusions.
Controls (n=6) received lactated Ringer's solution (lactate, […], 111.5 ml/kg/hr infusion, 1.5 ml/kg bolus prior to ischemia, and a 3.0 ml/kg bolus prior to reperfusion). Experimental groups (n=6 each) received similar volumes (3 ml) of either pyruvate, Na salt (28 mM) or pyruvate ethyl ester (28 mM), prepared in accordance with the method of this invention as shown in Table 2 and at a dosage rate equivalent to 10 mg/kg/hr. Small intestinal mucosal-to-serosal permeability (CMS, nl/min/cm^2) of FITC- dextran (mw=4 kDA) was evaluated using an everted gut sac technique as previously described by Wattanasirichaigoon (1999). Permeability was measured at baseline, after 30 and 60 minutes of ischemia ([…]) respectively, and after 30 and 60 minutes of reperfusion (R30 and R60, respectively). Histologic samples at baseline, 160 and R60 were evaluated for villous height (VH, μ) and mucosal thickness (MT, μ). Mucosal injury grade was determined according to the method described by Chiu et al. (1970), scored as in Table 3, as follows:
Data were summarized as means±standard error of the mean. Significances of differences were determined using Student's t-test. Differences were considered significant for p<0.05.

[3] = concentrations of 1 Mol/liter or less, standing for 48 hrs; cited from earlier work
[4] = I60 (after 60 minutes of ischemia)
[5] = R60 (after 60 minutes of reperfusion)

Row | absorbance ([1]; after calcium addition) | absorbance ([1]; before calcium addition) | average absorption, corrected for blanks ([1]; absence of calcium, pH 7.2) | average absorption, corrected for blanks ([1]; after addition of calcium) | Compound | stability of aqueous solution ([1]; in the presence of calcium salts (Ringer's solution)) | mucosal thickness (MT) ([2]; Baseline) | villous height (VH) ([2]; Baseline) | mucosal injury score ([2]; Chiu grade 0-5 (Table 3), FIG. 5) | cytoprotection as judged by the extent of permeability increase ([2]; FIG. 4) | mucosal thickness (MT) [2, 4] | villous height (VH) [2, 4] | mucosal thickness (MT) [2, 5] | villous height (VH) [2, 5] | villous height and mucosal thickness ([2]; during both ischemia and reperfusion, p<0.01) | mucosal permeability (FITC-dextran, everted gut sac) ([2]; FIG. 4) | dimer (4-hydroxy-4-methyl-2-ketoglutaric acid) formed [3] | hydrate formed [3]
1 | 0.85 | 0.07 | 0.2 | 0.41 | CCOC(=O)C(C)=O [Ethyl pyruvate (4), ethyl pyruvate] | more stable aqueous solution than sodium pyruvate | 583 μ | 486 ± 12 μ | significant diminution | significant trend towards effecting earlier and greater cytoprotection | 466 μ | 381 ± 24 μ | 352 μ | 296 ± 26 μ | significantly maintained | significantly decreased |  | 
2 |  |  |  |  | Lactate [reference compound] |  | 553 ± 34 μ | 470 ± 30 μ |  |  | 298 ± 32 μ | 244 ± 20 μ | 141 ± 22 μ | 130 ± 25 μ |  |  |  | 
3 |  |  |  |  | CC(=O)C(=O)[O-].[Na+] [Na Pyruvate (1), sodium pyruvate] |  |  |  |  |  |  |  |  |  |  | significantly decreased | 20-25% | 6-10%
4 |  |  | 0.15 |  | CC(=O)C(=O)O [pyruvic acid, reference compound] |  |  |  |  |  |  |  |  |  |  |  |  | 
